Assay results taken from patent publication US6017719A, “Positive and positive/negative cell selection mediated by peptide release” (Nexell Therapeutics, Inc., priority 1995, dated 2000).
“Also recorded” adds a separate entry of the source. Ends that are not written are not given here.

Key:
[1] = Solubilization of peptides in DPBS plus 1% HSA; type: physicochemical
From the text: 9079A-G peptides were solubilized in Dulbecco's phosphate buffered saline (DPBS) plus 1% HSA.

561 antibody [2] = assay: KG1a or tHL60 cell-based FACS assay: release of prebound 561 antibody; type: binding
From the text: Five peptides representing hexapeptides selected from biopannings were synthesized and tested for their ability to serve as release agents in the KG1a or tHL60 cell-based FACS assay.
The peptides (see Table 27 below) were synthesized by Research Genetics and tested without purification. The 9069 antibody was used as a positive control and released with the 9069N peptide (Ac-Q Q G W F P-K D) (SEQ ID NO:9). This control served to test for the KG1a cells and the goat-anti-mouse FITC secondary detection antibody. Hexapeptide sequences identified for the 561 antibody were tested for their ability to displace prebound 561 antibody.
HPLC-purified peptides 561C and D were tested in the cell-based KG1a FACS assay.
Functional release activity of purified 561D peptide at pH 4 and 6 was tested.
Functional release activity of purified 561C and 561D peptides at pH 4, 5, 6, 7, 8, and 9 was tested.
Functional release activity of crude 561A,B,C,D, M, P, Q, CDR2H, CDR2L, CDR3H, CDR3L, 34B, 34C,34D,34E and 34F peptides adjusted to pH 7 and pH unadjusted (~pH3.8-4.3) was tested.

561 antibody [3] = assay: Chemical reagents as enhancers of peptide-dependent release of CD34+ cells from the 561 antibody (FACS assay); type: cell-based
Protocol: The ability of chemical reagents to enhance peptide-dependant release of captured CD34+ cells from the 561 antibody was examined. […] Since long-term viability of the low pH-released cells was not known, conditions which could alter the pH to a more neutral value (about pH5-7) were desirable.
Reagents which were known to affect electrostatic and hydrogen bonding interactions of proteins were tested in addition to excluded-volume polymers. Included in these studies were sodium chloride, sodium acetate, magnesium chloride, calcium chloride, polyethylene glycol (PEG), ficoll, sodium succinate, sodium citrate, protamine sulphate, spermine, and polybrene.

CD34 cells = assay: Stem cell selection with 9069 antibody, sheep-anti-mouse beads and releasing agent; type: cell-based, human; conditions: chymopapain release
CD34+ cells = assay: CD34+ cell isolation on automated cell separation apparatus, then culture with cytokines; type: cell-based, human
Protocol: CD34+ cells were also isolated from human mobilized peripheral blood using the automated cell separation apparatus described in U.S. Pat. No. 5,536,475 and the method essentially as described in WO 95/24969 Both U.S. Pat. No. 5,536,475 and WO 95/24969 are herein expressly incorporated by reference. Chymopapain was used as the control releasing agent, and 25 mg of the peptide 9069N (Table 11) was used as the test releasing agent.

anti-CD34 antibody, 9069 = assay: KG1a cell FACS assay: release by peptides of 9069 antibody prebound to cells; type: binding, mouse; conditions: peptide added to KG1a cells with prebound 9069; 10^5 to 10^6 molar excess, 30 min, room temperature
Protocol: These experiments were performed following a similar procedure to the binding experiments except that the anti-CD34 antibody, 9069, was incubated with KG1a cells first, followed by addition of peptide. The experimental outline is schematically shown below:
KG1a Cell Assay to Test for Release by Peptides of 9069 Antibody Bound to Cells.
Anti-CD34 antibody, 9069 (0.i microgram) was incubated with KG1a cells (10^6) for 30 minutes at room temperature (about 22° C.). Molar excesses of 10^5 to 10^6 times the amount of peptide to antibody were tested for the ability to displace the prebound antibody. Peptides were incubated with the antibody-cell complexes for 30 minutes at room temperature (approximately 22° C.). Remaining bound antibody was detected using the FITC-goat anti-mouse IgG reagent described in Example 3.
Analysis of the variant peptide, 9069Q2, was done in parallel with the 9069N peptide. This analysis provides quality control information on reagents including the antibody, 9069, and the cells, KG1a. FACScan assays included a negative control of KG1a cells alone and positive control samples of KG1a cells with the 9069 antibody bound and detected with a secondary antibody, goat-anti-mouse IgG-FITC.

[4] = crude peptide, pH unadjusted (around pH 3.8-4.3; low pH ~4)
[5] = Table 7, mobilized peripheral blood (5.86% CD34 start)
[6] = Table 10, mobilized peripheral blood (0.68% CD34 start)

RSFYYRD [Peptide 9079E, RSFYYR--D]
solubility [1]: insoluble

NLQGEFKD [Peptide 9079D, NLQGEF--KD]
solubility [1]: solubilized

KDVYSLWPKD [Peptide 9079H, KD--VYSLWP--KD]
solubility [1]: solubilized

QYTQPKD [Peptide 9079C, QYTQPK--D]
solubility [1]: solubilized

PGSPLGKD [Peptide 9079A, PGSPLG--KD]
solubility [1]: solubilized

A C K W C R (ACKWCR) [Peptide 561M]
release activity on prebound 561 antibody (561 antibody [2]; crude peptide, pH 7): none of these peptides showed release activity; also recorded: did not show release activity
release activity on prebound 561 antibody (561 antibody [2]; [4]): showed functional release activity; also recorded: showed significant release activity
release of 561 antibody prebound to KG1a or tHL60 cells (in words) (561 antibody [2]; crude peptides, pH not stated): able to release 561 antibody prebound to KG1a or tHL60 cells
release activity on prebound 561 antibody (561 antibody [2]; pH 6): did not show release activity

YSRLGFKD [Peptide 9079B, YSRLGF--KD]
solubility [1]: solubilized

CC(=O)[O-].[Na+] [sodium acetate]
enhancement of peptide mediated release of CD34+ selected cells (561 antibody [3]): significant activity as an enhancement reagent

Chymopapain
% CD34 CELLS Negative Fraction (CD34 cells; [5]): 2.5%
% CD34 CELLS Positive Fraction (CD34 cells; [5]): 94%
% Capture (CD34 cells; [5]): 62%
% CD34 CELLS Negative Fraction (CD34 cells; Table 8, mobilized peripheral blood (1.05% CD34 start)): 0.16%
% CD34 CELLS Negative Fraction (CD34 cells; Table 9, bone marrow (3.66% CD34 start)): 0.34%
% CD34 CELLS Negative Fraction (CD34 cells; [6]): 0.12%
% Yield (CD34 cells; [6]): 68%
purity of the positively selected CD34+ cells (CD34+ cells; mobilized peripheral blood, 25 mg peptide 9069N or chymopapain control): greater than 90%
expansion in cell number (CD34+ cells; released CD34+ cells of first experiment, culture with cytokines for 12 days): 68 fold

IQEFGVKD [Peptide 9079F, IQEFGV--KD]
solubility [1]: solubilized

[Cl-].[Cl-].[Mg+2] [magnesium chlordie, magnesium chloride]
enhancement of peptide mediated release of CD34+ selected cells (561 antibody [3]): Less dramatic results

A I Y P G D G D T R Y T Q K F V V (AIYPGDGDTRYTQKFVV) [Peptide 561CDR2H]
release activity on prebound 561 antibody (561 antibody [2]; crude peptide, pH 7): none of these peptides showed release activity; also recorded: did not show release activity
release activity on prebound 561 antibody (561 antibody [2]; [4]): showed functional release activity; also recorded: showed significant release activity
release activity on prebound 561 antibody (561 antibody [2]; pH 6): did not show release activity

A D G A-L I S Q V S-Q A K D (ADGALISQVSQAKD) [Peptide 9069C]
% Inhibition of Binding (anti-CD34 antibody, 9069): 32%
